“Also recorded” adds a separate entry of the source.
Columns and labels:
MDA-231 cells [1] = assay: Additional cytotoxicity assays; type: cell-based; settings: human
Description: It is of interest to note that even in the presence of high concentrations of either EGB 761® or GKB, PBR levels and rates of cell proliferation could not be reduced below 30% of normal values. […] It should be also noted that even at the highest concentrations used, neither EGB 761® nor GKB were toxic for the cells, because cell proliferation recovered upon removal of the compounds.

MDA-231 xenografts = assay: MDA-231 human breast cancer xenograft model in nude mice
Procedure: After the end of the treatment the animals were kept for 30 more days and then the animals were sacrificed on day 60. Data shown are means±S.E.M. (n=10).
Biological Evaluation In Vivo. […] Twice weekly tumor sizes and body weights were recorded for all animals for the 30 days of treatment as well for 30 days after the end of the treatment. At that time the animals were sacrificed and the tumors were removed and processed for immunohistochemistry. Animal care was in accordance with institutional guidelines. […] Statistical Analysis.

PBR mRNA = assay: RNA (Northern) blot analysis of PBR mRNA in MDA-231 cells; type: cell-based, human; settings: 48 hours, 20 or 200 μg/ml EGB 761® or 2 or 20 μg/ml GKB
Description: (§1) Cell Culture and Treatments. […] Radioligand Binding Assays. […] RNA (Northern) Analysis. […] Nucleic Acid Arrays. […] BrdU Cell Proliferation Assays. […] Analysis of oxidative stress. […] Biological Evaluation In Vivo. […] Immunocytochemistry of MDA-231 tumors. […] Statistical Analysis. […] (FIG. 5).

MCF-7 cells = assay: BrdU cell proliferation assay, MCF-7; type: cell-based, human; settings: 48 hours, 20 or 200 μg/ml EGB 761® or 2 or 20 μg/ml GKB; compared with MDA-231
Description: as §1

[2] = system: MDA-231 cell free radical production; assay: Analysis of oxidative stress (2,7-DCF fluorescent probe) in MDA-231 cells; type: cell-based, human
Description: as §1

PBR = assay: Immunocytochemistry of MDA-231 tumors with anti-PBR antiserum; type: in vivo, human; settings: 50 mg/kg EGB 761® per os or 1 mg/kg GKB ip
Procedure: Formalin embedded sections of MDA-231 xenografts were immunostained with an anti-PBR antiserum at 1:500 dilution as described in the Materials and Methods section. MDA-231 tumors were obtained from animals treated with vehicle (A–D), 50 mg/kg EGB 761® per os (E, G), or 1 mg/kg GKB ip (F, H). […] Arrowheads indicate nuclei. Magnification is ×75 for A, B, C, E, F, G, and H and ×150 for […].
as §1

[3] = system: peripheral-type benzodiazepine receptor (PBR); assay: PBR ligand binding capacity of treated MDA-231 cells ([3H]PK 11195 saturation binding, Scatchard analysis); type: cell-based, human; settings: % of control values
Description: as §1

MDA-231 cells [4] = assay: BrdU cell proliferation assay, MDA-231
Procedure: 4 h prior to the end of incubation, bromodeoxyuridine (BrdU) was added to each well. Incorporation of BrdU was measured at 450 nm (reference=700 nm). Data points represent the mean±S.D. of four independent experiments carried out in quadruplicate.
4 h prior to the end of incubation, bromodeoxyuridine (BrdU) was added to each well. Incorporation of BrdU was measured at 450 nm (reference=700 nm). Data points represent the mean±S.D. of two independent experiments carried out in quadruplicate.
MDA-231 cells grown in 96-well plates were washed with PBS and cultured in media supplemented with 10% FBS in the presence or absence of either 2 μg/ml or 20 μg/ml GKB for 48 hours. 4 h prior to the end of incubation, bromodeoxyuridine (BrdU) was added to each well. Incorporation of BrdU was measured at 450 nm (reference=700 nm). Data points represent the mean±S.D. of two independent experiments carried out in quadruplicate.
Cell lines were cultured on polystyrene culture dishes (Corning) and grown in Dulbecco's modified Eagle medium (DMEM) supplemented with 10% fetal bovine serum (FBS). […] BrdU Cell Proliferation Assays. MDA-231 cells were plated on 96-well plates (Corning, Corning, N.J.) at a concentration of approximately 10,000 cells/well (24 h incubation) or approximately 5,000 cells/well (48 h incubation) in DMEM supplemented with 0.1% FBS. […] Differences in cell proliferation were analyzed by measuring the amount of 5-bromo-2′deoxyuridine (BrdU) incorporation determined by the BrdU ELISA (Boehringer Mannheim, Indianapolis, Ind.). Incorporation of BrdU was measured at 450 nm (reference at 690 nm).

Structure (SMILES): C[C@@H]1C(=O)O[C@H]2[C@H](O)C34[C@H]5C[C@@H](C(C)(C)C)C36C(O)C(=O)O[C@H]6O[C@@]4(C(=O)O5)[C@@]12O (some centres unmarked) [GKB, ginkgolide B]
- cell death (MDA-231 cells [1]): neither EGB 761® nor GKB induced any significant cell death
- decrease in tumor size (MDA-231 xenografts; 1 mg/kg ip once a day for 30 days, measured a month after the end of the treatment, p=0.043): 32%
- animal body weight (MDA-231 xenografts; 30 days treatment, 50 mg/kg EGB 761® or 1 mg/kg GKB, data not shown): did not affect
- PBR mRNA levels (PBR mRNA): reduced
- MCF-7 cell proliferation (BrdU incorporation) (MCF-7 cells): altered to a lesser degree
- effect on free radical / reactive oxygen species production [2]: absence of any significant decrease
- nuclear PBR expression in cells found in the middle of the tumor (PBR): reduced
- nuclear PBR expression in the cells at the edge of the tumors (PBR; cytosolic immunostaining could be seen): eliminated
- decrease of PBR levels (PBR ligand binding capacity, Bmax) [3]: 66%
- MDA-231 cell proliferation (BrdU incorporation) (MDA-231 cells [4]; 10% FBS, EGB 761® up to 96 h, GKB 2 or 20 μg/ml 48 hours): significantly altered; also recorded: inhibited
- toxicity for the cells (recovery of proliferation upon removal) (MDA-231 cells [4]; highest concentrations used): cytostatic and not cytotoxic
